The subject of this test is VHL-mutant patient-derived ccRCC tumorgraft lines. Put plainly: ccRCC tumorgraft model, six VHL-mutant tumorgraft lines. The format is in vivo, NOD/SCID mice. The procedure:
We selected 6 independently-derived ccRCC tumorgraft lines that were confirmed to have VHL mutation. The mice (3-5 mice per tumorgraft line) were treated with either HHT (0.7 mg/kg), vehicle (as a negative control), or rapamycin (0.5 mg/kg; as a positive control). In total, 65 tumorgraft bearing mice were evaluated for these experiments in time courses lasting ~28 days, with tumor growth measured every 3 or 4 days.
Figure 3 HHT inhibits tumor growth in a ccRCC tumorgraft model A-F, Tumorgraft lines were treated with vehicle control, HHT (0.7 mg/kg), rapamycin (0.5 mg/kg), (or the combination, where indicated) and tumor growth was measured on the indicated days. Day 0 represents the first day of treatment.
Tumorgrafts were generated and propagated as described previously, with tumor samples implanted subcutaneously into the flank of the mouse for drug trials. Briefly, 4- to 8-week-old NOD/SCID mice were anesthetized with isoflurane and implanted subcutaneously with 64 mm^3 tumor fragments (cohorts 2-20). Once tumors reached an average of at least ~250 mm^3, drug treatment was begun. The mice were treated with vehicle, 0.7 mg/kg homoharringtonine (HHT) via gavage twice daily, or 0.5 mg/kg rapamycin given by IP injection once every 48 hours. Tumor size (volume) was measured twice weekly and was obtained by multiplying tumor length, width, and depth using calipers. To assess toxicity, mouse weight was monitored once weekly.
Sections from tumors were stained with hematoxylin and eosin (H&E) as described previously.

Each structure is given as a SMILES string.

`COC(=O)C[C@](O)(CCCC(C)(C)O)C(=O)O[C@@H]1C(OC)=C[C@]23CCCN2CCc2cc4c(cc2[C@H]13)OCO4` [HHT, homoharringtonine]: the “tumorgraft lines with tumor growth inhibited” value (0.7 mg/kg by gavage twice daily, lines responding / lines tested) is 2/6. Besides, the “synergistic effects with rapamycin in the tumorgrafts” value (HHT 0.7 mg/kg plus rapamycin 0.5 mg/kg) is listed as “did not observe synergistic effects”. The “histology of harvested tumors (H&E)” value (XP26 and XP144 cohorts) is reported as “induced tumor cell necrosis”.

These data come from article PMC4627284, “High-throughput simultaneous screen and counterscreen identifies homoharringtonine as synthetic lethal with von Hippel-Lindau loss in renal cell carcinoma” (Oncotarget, 2015).
